# Test system: HeLa
# Experiment: not given
# Assay type: cell-based
row,Structure (SMILES),Selectivity index (SI = CC50/IC50)
1,CNc1nc2ccc3nc(NC(=O)c4cc(OC)c(OC)c(OC)c4)sc3c2s1 [Compound 59],greater than 500

# Target: Bacillus anthracis DNA replicative helicase (Bacillus anthracis, UniProt A0A0J1HKT7)
# Experiment: biochemical
# Assay type: biochemical
Structure (SMILES),Activity vs B. anthracis helicase (in words),IC50 [µM]
COc1cccc(C(=O)Nc2nc3ccc4nc(NC(C)C)sc4c3s2)c1 [Compound 51],significantly reduced activity,
COc1cccc(C(=O)Nc2nc3ccc4nc(NCC(C)C)sc4c3s2)c1 [Compound 52],modest inhibition,
COc1cccc(C(=O)Nc2nc3ccc4nc(NC5CCCCC5)sc4c3s2)c1 [Compound 53],significantly reduced activity,
COc1cccc(C(=O)Nc2nc3ccc4nc(NCc5ccccc5)sc4c3s2)c1 [Compound 54],significantly reduced activity,
COc1cc(CNc2nc3ccc4nc(SC)sc4c3s2)cc(OC)c1OC [Compound 64],lost activities,> 100
COc1cc(/C=N/c2nc3ccc4nc(SC)sc4c3s2)cc(OC)c1OC [Compound 65],lost activities,> 100
